{"source": "ChEMBL document CHEMBL1140464", "about": "“Synthesis and structure-activity relationship of 4-(2-aryl-cyclopropylamino)-quinoline-3-carbonitriles as EGFR tyrosine kinase inhibitors” (Bioorg Med Chem Lett, 2007)", "key": {"[1]": {"molecular_target": "T1, Epidermal growth factor receptor (Homo sapiens, UniProt P00533)", "experiment": "Inhibition of human recombinant EGFR by fluorescence polarization assay"}, "[2]": {"molecular_target": "Proto-oncogene tyrosine-protein kinase Src (Homo sapiens, UniProt P12931)", "sequence (P12931 2-536 limits assumed)": "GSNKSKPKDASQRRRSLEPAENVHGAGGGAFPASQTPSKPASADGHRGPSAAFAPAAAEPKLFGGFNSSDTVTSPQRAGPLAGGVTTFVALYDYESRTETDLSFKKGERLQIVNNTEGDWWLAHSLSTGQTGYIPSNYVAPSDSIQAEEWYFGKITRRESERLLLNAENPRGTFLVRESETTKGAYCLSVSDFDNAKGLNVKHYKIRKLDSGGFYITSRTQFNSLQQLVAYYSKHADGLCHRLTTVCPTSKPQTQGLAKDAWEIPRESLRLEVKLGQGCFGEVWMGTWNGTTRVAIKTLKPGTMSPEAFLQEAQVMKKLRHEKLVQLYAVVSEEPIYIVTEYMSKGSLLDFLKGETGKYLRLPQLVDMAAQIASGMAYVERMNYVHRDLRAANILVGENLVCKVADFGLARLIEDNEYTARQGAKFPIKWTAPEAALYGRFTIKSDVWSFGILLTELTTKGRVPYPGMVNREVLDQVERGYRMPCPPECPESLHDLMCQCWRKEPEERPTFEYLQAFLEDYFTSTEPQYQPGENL", "experiment": "Inhibition of SRC"}, "[3]": {"molecular_target": "Tyrosine-protein kinase SYK (Homo sapiens, UniProt P43405)", "experiment": "Inhibition of SYK"}, "[4]": {"molecular_target": "T1, Epidermal growth factor receptor", "experiment": "Inhibition of human EGFR autophosphorylation in A431 cells"}, "[5]": {"molecular_target": "Tyrosine-protein kinase ABL1 (Homo sapiens, UniProt P00519)", "sequence (P00519 whole entry)": "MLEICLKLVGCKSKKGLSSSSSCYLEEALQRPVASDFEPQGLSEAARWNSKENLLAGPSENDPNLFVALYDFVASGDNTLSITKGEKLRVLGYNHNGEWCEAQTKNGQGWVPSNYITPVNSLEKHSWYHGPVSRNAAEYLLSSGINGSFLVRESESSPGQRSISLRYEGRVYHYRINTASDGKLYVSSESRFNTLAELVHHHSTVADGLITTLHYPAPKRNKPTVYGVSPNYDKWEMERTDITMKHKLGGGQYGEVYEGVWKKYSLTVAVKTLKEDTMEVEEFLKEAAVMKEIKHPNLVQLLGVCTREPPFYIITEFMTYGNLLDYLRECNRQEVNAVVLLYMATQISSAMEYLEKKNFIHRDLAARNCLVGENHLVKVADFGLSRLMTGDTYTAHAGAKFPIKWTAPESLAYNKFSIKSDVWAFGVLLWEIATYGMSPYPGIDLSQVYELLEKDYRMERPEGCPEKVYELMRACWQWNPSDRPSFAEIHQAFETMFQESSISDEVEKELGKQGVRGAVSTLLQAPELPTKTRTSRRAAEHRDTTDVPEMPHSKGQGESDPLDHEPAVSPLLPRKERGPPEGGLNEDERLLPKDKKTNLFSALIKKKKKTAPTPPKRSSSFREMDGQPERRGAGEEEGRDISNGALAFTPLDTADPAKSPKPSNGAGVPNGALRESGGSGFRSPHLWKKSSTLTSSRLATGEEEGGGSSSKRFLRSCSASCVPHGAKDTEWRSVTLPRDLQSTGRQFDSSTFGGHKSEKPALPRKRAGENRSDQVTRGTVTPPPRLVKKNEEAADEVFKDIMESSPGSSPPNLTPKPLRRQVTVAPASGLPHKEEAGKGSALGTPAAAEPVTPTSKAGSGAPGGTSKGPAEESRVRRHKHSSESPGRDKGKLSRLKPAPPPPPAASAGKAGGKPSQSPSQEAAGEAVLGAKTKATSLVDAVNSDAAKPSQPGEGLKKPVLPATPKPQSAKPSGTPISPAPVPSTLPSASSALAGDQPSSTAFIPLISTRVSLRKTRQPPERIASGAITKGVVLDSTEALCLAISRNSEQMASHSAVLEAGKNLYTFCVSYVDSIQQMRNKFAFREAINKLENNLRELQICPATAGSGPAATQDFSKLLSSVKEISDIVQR", "experiment": "Inhibition of ABL"}, "[6]": {"molecular_target": "Vascular endothelial growth factor receptor 1 (Homo sapiens, UniProt P17948)", "sequence (P17948 whole entry)": "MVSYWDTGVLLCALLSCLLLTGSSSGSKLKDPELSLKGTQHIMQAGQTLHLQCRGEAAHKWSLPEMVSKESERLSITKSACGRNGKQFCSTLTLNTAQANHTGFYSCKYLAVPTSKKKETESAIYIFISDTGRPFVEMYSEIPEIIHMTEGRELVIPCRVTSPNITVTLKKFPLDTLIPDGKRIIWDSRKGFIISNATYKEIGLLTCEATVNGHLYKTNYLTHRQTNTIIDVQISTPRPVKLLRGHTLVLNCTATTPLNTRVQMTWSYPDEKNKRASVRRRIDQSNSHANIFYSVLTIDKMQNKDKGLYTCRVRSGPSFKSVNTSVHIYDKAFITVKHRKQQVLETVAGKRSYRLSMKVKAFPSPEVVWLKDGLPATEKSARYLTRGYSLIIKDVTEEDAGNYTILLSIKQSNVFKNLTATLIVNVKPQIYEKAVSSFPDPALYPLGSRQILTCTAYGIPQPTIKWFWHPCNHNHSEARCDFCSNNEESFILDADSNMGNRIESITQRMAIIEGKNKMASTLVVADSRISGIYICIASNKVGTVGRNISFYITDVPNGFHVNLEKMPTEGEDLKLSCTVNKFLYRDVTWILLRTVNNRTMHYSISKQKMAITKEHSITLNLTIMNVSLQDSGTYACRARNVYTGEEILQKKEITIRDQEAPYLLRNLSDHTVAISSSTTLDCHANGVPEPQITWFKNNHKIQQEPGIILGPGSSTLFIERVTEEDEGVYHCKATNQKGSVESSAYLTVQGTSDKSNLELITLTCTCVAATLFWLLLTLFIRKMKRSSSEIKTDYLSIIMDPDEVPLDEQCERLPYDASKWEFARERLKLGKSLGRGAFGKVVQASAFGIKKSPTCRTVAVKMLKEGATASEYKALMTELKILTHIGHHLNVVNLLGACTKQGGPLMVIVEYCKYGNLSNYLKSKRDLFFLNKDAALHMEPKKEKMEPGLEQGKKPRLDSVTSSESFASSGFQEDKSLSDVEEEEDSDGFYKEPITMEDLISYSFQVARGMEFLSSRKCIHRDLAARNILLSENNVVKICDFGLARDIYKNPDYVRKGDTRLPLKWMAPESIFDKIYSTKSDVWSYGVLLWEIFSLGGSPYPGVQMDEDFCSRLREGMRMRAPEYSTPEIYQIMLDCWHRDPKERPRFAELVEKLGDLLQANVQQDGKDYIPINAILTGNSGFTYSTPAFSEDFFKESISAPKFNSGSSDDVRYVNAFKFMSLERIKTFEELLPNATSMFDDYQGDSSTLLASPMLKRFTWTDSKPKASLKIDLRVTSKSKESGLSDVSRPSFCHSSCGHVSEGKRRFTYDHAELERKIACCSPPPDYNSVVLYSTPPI", "experiment": "Inhibition of Flt1"}, "[7]": {"molecular_target": "Vascular endothelial growth factor receptor 2 (Homo sapiens, UniProt P35968)", "sequence (P35968 whole entry)": "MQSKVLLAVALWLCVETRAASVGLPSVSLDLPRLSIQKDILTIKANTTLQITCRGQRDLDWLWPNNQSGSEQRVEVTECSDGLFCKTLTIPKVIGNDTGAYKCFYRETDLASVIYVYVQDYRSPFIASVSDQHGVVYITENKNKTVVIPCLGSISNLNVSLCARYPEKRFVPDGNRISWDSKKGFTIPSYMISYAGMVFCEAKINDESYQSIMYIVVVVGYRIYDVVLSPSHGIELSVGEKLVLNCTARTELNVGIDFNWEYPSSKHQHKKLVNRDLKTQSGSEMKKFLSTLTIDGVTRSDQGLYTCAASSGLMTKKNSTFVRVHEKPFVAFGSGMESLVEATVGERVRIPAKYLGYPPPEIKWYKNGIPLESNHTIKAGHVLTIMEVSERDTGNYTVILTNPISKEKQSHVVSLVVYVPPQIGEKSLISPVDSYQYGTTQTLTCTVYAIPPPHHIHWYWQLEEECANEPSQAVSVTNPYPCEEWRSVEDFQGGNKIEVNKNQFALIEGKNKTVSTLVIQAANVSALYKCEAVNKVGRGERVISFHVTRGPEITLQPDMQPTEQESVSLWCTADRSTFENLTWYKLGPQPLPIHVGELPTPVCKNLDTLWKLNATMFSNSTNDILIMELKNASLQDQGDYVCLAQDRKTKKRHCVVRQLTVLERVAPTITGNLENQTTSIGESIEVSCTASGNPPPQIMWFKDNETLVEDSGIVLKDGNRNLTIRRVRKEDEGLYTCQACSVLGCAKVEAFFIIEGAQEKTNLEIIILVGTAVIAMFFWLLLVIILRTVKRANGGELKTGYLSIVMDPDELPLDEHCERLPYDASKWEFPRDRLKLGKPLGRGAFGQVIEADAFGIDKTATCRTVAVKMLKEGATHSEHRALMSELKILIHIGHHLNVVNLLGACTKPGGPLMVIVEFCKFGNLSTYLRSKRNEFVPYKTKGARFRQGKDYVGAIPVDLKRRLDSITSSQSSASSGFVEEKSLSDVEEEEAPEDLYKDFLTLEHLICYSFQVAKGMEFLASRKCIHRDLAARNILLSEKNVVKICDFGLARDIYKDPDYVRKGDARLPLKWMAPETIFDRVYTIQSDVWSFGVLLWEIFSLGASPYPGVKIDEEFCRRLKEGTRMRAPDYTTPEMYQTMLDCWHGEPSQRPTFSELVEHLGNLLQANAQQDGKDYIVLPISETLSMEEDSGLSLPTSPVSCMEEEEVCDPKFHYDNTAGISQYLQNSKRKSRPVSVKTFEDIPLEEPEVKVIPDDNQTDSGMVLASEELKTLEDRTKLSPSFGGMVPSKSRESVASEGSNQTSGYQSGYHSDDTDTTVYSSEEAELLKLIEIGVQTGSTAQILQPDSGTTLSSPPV", "experiment": "Inhibition of KDR"}}, "note": "pIC50, pKi: −log10 of the molar value.", "data": [{"smiles": "COc1cc2ncc(C#N)c(N[C@@H]3C[C@H]3c3ccccc3F)c2cc1OC", "values": [{"measurement": "pKi", "setting": "[1]", "result": 7.44}]}, {"smiles": "COc1cc2c(N[C@@H]3C[C@H]3c3ccccc3)c(C#N)cnc2cc1OCCCc1cccnc1", "values": [{"measurement": "pKi", "setting": "[1]", "result": 6.66}, {"measurement": "pKi", "setting": "[2]", "result": 7.31}, {"measurement": "pKi", "setting": "[3]", "result": 6.85}, {"measurement": "pIC50", "setting": "[4]", "result": 6.76}, {"measurement": "pKi", "setting": "[5]", "result": 6.52}, {"measurement": "pKi", "setting": "[6]", "result": 5.72}, {"measurement": "pKi", "setting": "[7]", "result": 7.00}]}, {"smiles": "COc1ccc2c(N[C@@H]3C[C@H]3c3ccccc3)c(C#N)cnc2c1", "values": [{"measurement": "pKi", "setting": "[1]", "result": 6.74}, {"measurement": "pKi", "setting": "[2]", "result": 6.77}, {"measurement": "pKi", "setting": "[3]", "result": "< 5.00"}, {"measurement": "pIC50", "setting": "[4]", "result": 5.59}, {"measurement": "pKi", "setting": "[5]", "result": "< 5.00"}, {"measurement": "pKi", "setting": "[6]", "result": "< 5.00"}, {"measurement": "pKi", "setting": "[7]", "result": "< 5.00"}]}, {"smiles": "N#Cc1cnc2ccc(-c3ccc(CN)cc3)cc2c1N[C@@H]1C[C@H]1c1ccccc1", "values": [{"measurement": "pKi", "setting": "[1]", "result": 7.40}, {"measurement": "pKi", "setting": "[2]", "result": 7.07}, {"measurement": "pKi", "setting": "[3]", "result": 6.35}, {"measurement": "pIC50", "setting": "[4]", "result": 5.68}, {"measurement": "pKi", "setting": "[5]", "result": 6.11}, {"measurement": "pKi", "setting": "[6]", "result": 5.85}, {"measurement": "pKi", "setting": "[7]", "result": 5.82}]}, {"smiles": "COc1cc2c(N[C@@H]3C[C@H]3c3ccccc3)c(C#N)cnc2cc1OCCCN1CCOCC1", "values": [{"measurement": "pKi", "setting": "[2]", "result": 7.35}, {"measurement": "pKi", "setting": "[3]", "result": "< 5.00"}, {"measurement": "pKi", "setting": "[5]", "result": 6.70}, {"measurement": "pKi", "setting": "[6]", "result": 6.46}, {"measurement": "pKi", "setting": "[7]", "result": 6.38}]}, {"smiles": "COc1cc2ncc(C#N)c(N[C@@H]3C[C@H]3c3ccccc3)c2cc1OCCCN1CCOCC1", "values": [{"measurement": "pKi", "setting": "[1]", "result": 7.28}, {"measurement": "pKi", "setting": "[2]", "result": "< 5.00"}, {"measurement": "pKi", "setting": "[3]", "result": "< 5.00"}, {"measurement": "pKi", "setting": "[5]", "result": 5.74}, {"measurement": "pKi", "setting": "[6]", "result": 6.04}, {"measurement": "pKi", "setting": "[7]", "result": 6.25}]}, {"smiles": "COc1cc2ncc(C#N)c(N[C@@H]3C[C@H]3c3ccccc3)c2cc1OCCN1CCOCC1", "values": [{"measurement": "pKi", "setting": "[1]", "result": 7.19}, {"measurement": "pKi", "setting": "[2]", "result": "< 5.00"}, {"measurement": "pKi", "setting": "[3]", "result": "< 5.00"}, {"measurement": "pIC50", "setting": "[4]", "result": 6.39}, {"measurement": "pKi", "setting": "[5]", "result": "< 5.00"}, {"measurement": "pKi", "setting": "[6]", "result": "< 5.00"}, {"measurement": "pKi", "setting": "[7]", "result": 6.82}]}, {"smiles": "COc1cc2ncc(C#N)c(N[C@@H]3C[C@H]3c3ccc(Oc4ccccc4)cc3)c2cc1OC", "values": [{"measurement": "pKi", "setting": "[1]", "result": 7.10}]}, {"smiles": "COc1cc2c(N[C@@H]3C[C@H]3c3ccccc3)c(C#N)cnc2cc1OCCCN1CCN(C)CC1", "values": [{"measurement": "pKi", "setting": "[1]", "result": 8.52}, {"measurement": "pKi", "setting": "[2]", "result": 7.57}, {"measurement": "pKi", "setting": "[3]", "result": 7.39}, {"measurement": "pIC50", "setting": "[4]", "result": 8.24}, {"measurement": "pKi", "setting": "[5]", "result": 7.36}, {"measurement": "pKi", "setting": "[6]", "result": 6.96}, {"measurement": "pKi", "setting": "[7]", "result": 6.52}]}, {"smiles": "COc1cc2ncc(C#N)c(N[C@@H]3C[C@H]3c3ccccc3)c2cc1OC", "values": [{"measurement": "pKi", "setting": "[1]", "result": 7.62}, {"measurement": "pKi", "setting": "[2]", "result": 6.82}, {"measurement": "pKi", "setting": "[3]", "result": 6.60}, {"measurement": "pIC50", "setting": "[4]", "result": 7.05}, {"measurement": "pKi", "setting": "[5]", "result": 6.02}, {"measurement": "pKi", "setting": "[6]", "result": 5.80}, {"measurement": "pKi", "setting": "[7]", "result": 5.68}]}, {"smiles": "N#Cc1cnc2ccc(-c3cccc(CN4CCOCC4)c3)cc2c1N[C@@H]1C[C@H]1c1ccccc1", "values": [{"measurement": "pKi", "setting": "[1]", "result": 6.47}, {"measurement": "pKi", "setting": "[2]", "result": 6.55}, {"measurement": "pKi", "setting": "[3]", "result": "< 5.00"}, {"measurement": "pIC50", "setting": "[4]", "result": 5.28}, {"measurement": "pKi", "setting": "[5]", "result": "< 5.00"}, {"measurement": "pKi", "setting": "[6]", "result": "< 5.00"}, {"measurement": "pKi", "setting": "[7]", "result": "< 5.00"}]}, {"smiles": "N#Cc1cnc2cc(-c3ccc(CN4CCOCC4)cc3)ccc2c1N[C@@H]1C[C@H]1c1ccccc1", "values": [{"measurement": "pKi", "setting": "[1]", "result": 7.10}, {"measurement": "pKi", "setting": "[2]", "result": 6.85}, {"measurement": "pIC50", "setting": "[4]", "result": 6.63}, {"measurement": "pKi", "setting": "[6]", "result": 6.04}, {"measurement": "pKi", "setting": "[7]", "result": 6.77}]}, {"smiles": "COc1cc2ncc(C#N)c(N[C@@H]3C[C@H]3c3ccc(Br)cc3)c2cc1OC", "values": [{"measurement": "pKi", "setting": "[1]", "result": 6.66}]}, {"smiles": "COc1cc2ncc(C#N)c(N[C@@H]3C[C@H]3c3ccccc3)c2cc1OCc1ccccc1", "values": [{"measurement": "pKi", "setting": "[1]", "result": 6.92}, {"measurement": "pKi", "setting": "[2]", "result": 6.48}, {"measurement": "pKi", "setting": "[3]", "result": "< 5.00"}, {"measurement": "pIC50", "setting": "[4]", "result": 5.79}, {"measurement": "pKi", "setting": "[5]", "result": "< 5.00"}, {"measurement": "pKi", "setting": "[6]", "result": "< 5.00"}, {"measurement": "pKi", "setting": "[7]", "result": 5.59}]}, {"smiles": "N#Cc1cnc2ccc(-c3ccc(CN4CCOCC4)cc3)cc2c1N[C@@H]1C[C@H]1c1ccccc1", "values": [{"measurement": "pKi", "setting": "[1]", "result": 6.40}, {"measurement": "pKi", "setting": "[2]", "result": 6.24}, {"measurement": "pKi", "setting": "[3]", "result": "< 5.00"}, {"measurement": "pIC50", "setting": "[4]", "result": 5.60}, {"measurement": "pKi", "setting": "[5]", "result": "< 5.00"}, {"measurement": "pKi", "setting": "[6]", "result": "< 5.00"}, {"measurement": "pKi", "setting": "[7]", "result": "< 5.00"}]}, {"smiles": "COc1ccc2ncc(C#N)c(N[C@@H]3C[C@H]3c3ccccc3)c2c1", "values": [{"measurement": "pKi", "setting": "[1]", "result": 6.44}, {"measurement": "pKi", "setting": "[2]", "result": 6.68}, {"measurement": "pKi", "setting": "[3]", "result": "< 5.00"}, {"measurement": "pIC50", "setting": "[4]", "result": 5.08}, {"measurement": "pKi", "setting": "[5]", "result": "< 5.00"}, {"measurement": "pKi", "setting": "[6]", "result": "< 5.00"}, {"measurement": "pKi", "setting": "[7]", "result": "< 5.00"}]}, {"smiles": "COCCOc1cc2ncc(C#N)c(N[C@@H]3C[C@H]3c3ccccc3)c2cc1OC", "values": [{"measurement": "pKi", "setting": "[1]", "result": 7.22}, {"measurement": "pKi", "setting": "[2]", "result": 6.96}, {"measurement": "pKi", "setting": "[3]", "result": 6.80}, {"measurement": "pIC50", "setting": "[4]", "result": 7.28}, {"measurement": "pKi", "setting": "[5]", "result": 6.41}, {"measurement": "pKi", "setting": "[6]", "result": 5.54}, {"measurement": "pKi", "setting": "[7]", "result": 6.85}]}, {"smiles": "COc1cc2ncc(C#N)c(N[C@@H]3C[C@H]3c3ccccc3)c2cc1OCCCc1cccnc1", "values": [{"measurement": "pKi", "setting": "[1]", "result": 7.17}, {"measurement": "pKi", "setting": "[2]", "result": "< 5.00"}, {"measurement": "pKi", "setting": "[3]", "result": "< 5.00"}, {"measurement": "pIC50", "setting": "[4]", "result": 7.17}, {"measurement": "pKi", "setting": "[5]", "result": 5.74}, {"measurement": "pKi", "setting": "[6]", "result": 5.77}, {"measurement": "pKi", "setting": "[7]", "result": 6.19}]}, {"smiles": "COc1cc2c(N[C@@H]3C[C@H]3c3ccccc3)c(C#N)cnc2cc1OC1CCN(C)CC1", "values": [{"measurement": "pKi", "setting": "[1]", "result": 6.44}, {"measurement": "pKi", "setting": "[2]", "result": "< 5.00"}, {"measurement": "pKi", "setting": "[3]", "result": "< 5.00"}, {"measurement": "pIC50", "setting": "[4]", "result": 6.44}, {"measurement": "pKi", "setting": "[5]", "result": "< 5.00"}, {"measurement": "pKi", "setting": "[6]", "result": 5.82}, {"measurement": "pKi", "setting": "[7]", "result": "< 5.00"}]}, {"smiles": "COc1cc2ncc(C#N)c(N[C@@H]3C[C@H]3c3ccc(Cl)cc3)c2cc1OC", "values": [{"measurement": "pKi", "setting": "[1]", "result": 7.36}]}, {"smiles": "COc1cc2ncc(C#N)c(N[C@@H]3C[C@H]3c3cccc(Br)c3)c2cc1OC", "values": [{"measurement": "pKi", "setting": "[1]", "result": 7.28}]}]}
